What all share (assay type): in vivo, human
A short description of assay [1]: Patients with various allergies.
The nature of the next assay: Toxemia of pregnancy. On the procedure:
Ile-Trp is applied in pregnant women with Toxemia of first and second half of pregnancy. Ile-Trp is administered IM and intranasally at 100 μg daily for 5-10 days. It is observed that the BP normalized, and peripheral edema is reduced with normalization of the blood chemistry profile, and the restoration of initially altered immunologic indices.
The control group comprised 54 patients.

In another assay the test system is hemorrhagic Dengue Fever. The assay can be described thus: Hemorrhagic Dengue Fever (Examples 38, 94). The source says:
Ile-Trp is applied in patients with hemorrhagic Dengue Fever. […]
It was also noted that the muscular and bone pain experienced typically was reduced, and the immunological indices were normalized.

A further assay concerns Herpes Zoster. The assay can be described thus: Herpes Zoster patients, with interferon. The note with it: for clinical effect: 100 μg, 10 days. The protocol:
Patients with Herpes Zoster are treated with Ile-Trp in combination with conventional interferon treatment and some control patients with interferon alone. […] There is noted prevention of relapses, and some healing occurred earlier than control groups. Immunological indices correlates with clinical outcome.
There was noted prevention of relapses, and healing occurred on the average 40% earlier than control groups. Immunological indices correlated with clinical outcome.

Another assay relates to herpetic lesions. The assay can be described thus: Recurrent herpetic lesions. The settings on record: for recurrence of herpetic lesions: IM or intranasally.
Assay [2] in a line: Toothpaste containing the dipeptide: dental caries, gingival disease.
Assay [3] in a line: Chemotherapy complications and side effects.
Assay [4] in a line: Female patients with pelvic inflammatory diseases, cervicitis, vaginitis, abscesses. The protocol:
Female patients with the various disorders (pelvic inflammatory diseases, cervicitis, vaginitis and various tubo-ovarian and adnexal abscesses) are treated and some patients are used as controls. Ile-Trp is applied IM, intranasally at 100 μg 5 consecutive days or 50 μg intralymphatically for 5 consecutive days in conjunction with conventional therapy. […] The normalization of immune status correlates with clinical improvements.
The normalization of immune status correlated with clinical improvements.

Assay [5] can be described thus: Pyoderma patients (furunculitis, cellulitis, folliculitis). The settings on record: IM or intranasally 5 days. The protocol: Patients with pyoderma, including furunculitis, cellulitis, and folliculitis, are treated with Ile-Trp with a control group which is not treated with Ile-Trp. Medications are administered either IM or intranasally for 5 consecutive days. […] Clinical improvement correlate with immunological indices correction. Administration IM, intranasally, or topically as a sterile saline, solution of medication for a period of 5 to 10 days at a concentration of 1 μg/kg body weight.
Medications were administered either IM or intranasally for 5 consecutive days. […] Clinical improvement correlated with immunological indices correction. Administration IM, intranasally, or topically as a sterile saline solution of medication for a period of 5 to 10 days at a concentration of 1 μg/kg body weight.

In another assay the test system is flu. The settings on record: 3 days, with anti-flu vaccination.
The subject of assay [6] is antibiotic-resistant staphylococci. Nature of the assay: Chronic skin diseases caused by antibiotic-resistant staphylococci. On the procedure:
Ile-Trp is administered to patients suffering from chronic skin diseases caused by antibiotic-resistant staphylococci. Ile-Trp is administered IM in single daily doses of 100 μg for 5 days and intranasally to a different group in the same daily and total dose. In the patients with signs of secondary T-immunodeficiency the staphylococci antibiotic sensitivity to one, few or all antibiotics is increased which then permits one to choose for each patient an effective antibiotic with exclusively high activity against a given pathogen.
47 patients with the same pathology but not treated with the immunomodulator were the control group. […] The differences between these methods of application were not noticed. In all the patients with signs of secondary T-immunodeficiency the staphylococci antibiotic-sensitivity to one, few or all antibiotics has been increased sharply (more than 100-fold) what permitted further to choose for each patient the antibiotic with exclusively high activity against pathogen. As a whole, within the examined group of patients the reliable decease of MIC of all studied antibiotics has been marked. The proposed treatment regiment permitted to obtain the complete recovery in 27 patients, significant improvement—in 8 patients and moderate improvement—in 1 patient.

A short description of a further assay: Chronic osteomyelitis. On the procedure:
Ile-Trp is prescribed to patients with chronic osteomyelitis of various etiology and localization. Ile-Trp is administered IM or intranasally single daily at 100 μg for 10 days.
The control group comprised 88 patients.

The nature of a further assay: Psoriasis patients. The note with it: 10 days. The protocol: Patients with psoriasis are treated with Ile-Trp and some patients are used as controls.
All patients had at a least 5 year history of […] treatment.

A further assay has as its system viral infection. Nature of the assay: Acute respiratory disease patients. The protocol: Patients with acute respiratory disease, including upper airway diseases, such as colds, are treated with Ile-Trp. […] Secondary infectious complications are diminished, and the duration of the treatment is also diminished.
There was noted a decrease in the specific signs of upper respiratory infections such rhinorrhea, sore throat, fever, muscle aches, headaches, and ear pain. Secondary infectious complications were diminished, and the duration of the treatment was also diminished.

Assay [7] is described as follows: Frostbite to the extremities. The protocol: Patients with frostbite to the extremities are treated with Ile-Trp either IM or intranasally.
Assay [8] is described as follows: Gingival disease patients. On the procedure: Patients are treated for gingival disease by subcutaneous administration of Ile-Trp in the area of the gingiva. […] Administration of 100 μg IM, subcutaneously, or by electrophoresis (whereby a small voltage charge to the gums results in a rapid transfer of medication through the gum epithelium) results in the arresting of bleeding, more rapid restoration of inflammatory processes, and the decrease of purulent discharge. The treatment results in fewer recurrences and prolongation of normal gums.

The mark [9] stands for this setting: IM862 100 μg IM or intranasally.

The values that follow come from patent US20030198617A1, “Pharmaceutical tryptophan containing dipeptide compositions and methods of use thereof” (priority 1993, published 2003).

Like-named read-outs stand apart in the source and are kept apart here.

Take Glu-Trp [IM862]: the clinical effect entry was “disappearance of allergic reactions” in [1] (IM862 1 μg/kg 5-7 days, 29 patients); “BP normalized” in “Toxemia of pregnancy” (IM862 100 μg daily 5-10 days, 97 women); “reduction in fever” in the assay on hemorrhagic Dengue Fever (IM862 IM 100 μg 3 days with conventional therapy, 21 patients); “accelerated regression of foci of herpetic infection” with Herpes Zoster (IM862 with interferon, 37 patients); “reduction of gingival disease and reduction in dental caries” in assay [2] (toothpaste containing IM862); “fewer complications and side effects related to chemotherapy” in assay [3] (IM862 during chemotherapy). Also, the clinical effect entry was “arresting of pain syndrome” in [4] (IM862 with conventional therapy, 46 patients); “Immunological indices were normalized with disappearance of skin manifestations” in [5] (IM862, 159 patients); “pronounced positive influence on clinical course” in “Chronic osteomyelitis” (IM862 100 μg 10 days, 176 patients); “milder course of the viral infection” with viral infection (IM862 100 μg 3-7 days, 186 patients); “rapid healing and restoration of tissue integrity” in assay [7] (IM862 IM or intranasally, 17 patients); “arresting of gingival disease” in [8] (IM862, subcutaneous in the gingiva). The “healing earlier than control groups” value in the assay on Herpes Zoster (IM862 with interferon, on the average) came to 40%. Moreover, the “outbreaks per year after treatment” value in the assay with herpetic lesions (IM862 in combination with interferon, 7-10 outbreaks per year before) was “less than one outbreak per year”. The “recurrence of herpetic lesions” value with herpetic lesions (IM862 topically) is on record as “marked reduction of recurrence of herpetic lesions”. In addition, the “sickness rate for 12 months” value in the assay with flu (IM862 50 μg, 268 persons) was “significant decrease of sickness rate”. For the same substance, in assay [6] (IM862 100 μg 5 days, patients with secondary T-immunodeficiency), the “increase of staphylococci antibiotic-sensitivity” value is reported as “more than 100 fold”. The “complete recovery, number of patients” value in [6] (IM862 treatment regimen) was found to be 27 patients. The “moderate improvement, number of patients” value in assay [6] (IM862 treatment regimen) was found to be 1 patient. Besides, in [6] (IM862 treatment regimen), the “significant improvement, number of patients” value came out at 8 patients. Also, the “significant improvement, share of patients” value in “Psoriasis patients” (setting [9]) was determined as 60%. Moreover, the “total recovery, share of patients” value in the assay “Psoriasis patients” (setting [9]) is reported as 33%. Also, the “improvement, share of patients” value in “Psoriasis patients” (IM862 100 μg IM or intranasally, 30 patients) worked out at 7%.

On to Ile-Trp, for which the clinical effect result in assay [1] (Ile-Trp 1 μg/kg 5-7 days) was “disappearance of allergic reactions”; in the assay “Toxemia of pregnancy” (Ile-Trp 100 μg daily 5-10 days) it was “BP normalized”; with hemorrhagic Dengue Fever (Ile-Trp IM 100 μg 5 days with conventional therapy) it was “reduction in fever”; in the assay on Herpes Zoster (Ile-Trp with interferon) it was “accelerated regression of foci of herpetic infection”; in [2] (toothpaste containing Ile-Trp) it was “reduction of gingival disease and reduction in dental caries”; in [3] (Ile-Trp during chemotherapy), “fewer complications and side effects related to chemotherapy”. In addition, the clinical effect entry in assay [4] (Ile-Trp with conventional therapy) was “arresting of pain syndrome”; in assay [5] (Ile-Trp), “Immunological indices are normalized with disappearance of skin manifestations”; in the assay “Chronic osteomyelitis” (Ile-Trp 100 μg 10 days) it was “pronounced positive influence on clinical course”; in the assay “Psoriasis patients” (Ile-Trp 100 μg IM or intranasally) it was “improvement in most of the patients, and total recovery in some of the patients”; with viral infection (Ile-Trp 100 μg 3-7 days), “milder course of the viral infection”; in [7] (Ile-Trp IM or intranasally) it was “Rapid healing and restoration of tissue integrity”. For the same substance, in assay [8] (Ile-Trp, subcutaneous in the gingiva), the clinical effect entry is “arresting of gingival disease”. Also, in the assay on herpetic lesions (Ile-Trp topically), the “recurrence of herpetic lesions” value is “marked reduction of recurrence of herpetic lesions”. Besides, the “sickness rate for 12 months” value in the assay with flu (Ile-Trp 50 μg) is “significant decrease of sickness rate”. In [6] (Ile-Trp 100 μg 5 days, patients with secondary T-immunodeficiency), the staphylococci antibiotic sensitivity entry is “is increased”.
